Measurements as given in US7563913B2, “Compound and pharmaceutical composition” (Hiro International Co., Ltd., priority 2003, dated 2009).
Converted amounts (≈) assume the structure as drawn.

Tests used:
[1] = test system: OVCAR-5 ovarian cancer cell line; test: Human cultured cancer cell panel screening test, OVCAR-5; format: cell-based
Protocol: (§1) To examine the cytostatic activity of TD-1, a human cultured cancer cell panel screening test was carried out. Specifically, for TD-1, the human cultured cancer cell panel screening test was carried out by measuring 50% cell growth inhibitory concentration (GI50) against 39 types in total of human tumor cells according to the method described in “Gan To Kagaku Ryoho (Cancer and Chemotherapy) (Takao Yamori), 24, 129-135, 1997”.

[2] = test system: PC-3 prostatic cancer cell line; test: Human cultured cancer cell panel screening test, PC-3; format: cell-based
Protocol: as §1

[3] = test system: OVCAR-3 ovarian cancer cell line; test: Human cultured cancer cell panel screening test, OVCAR-3; format: cell-based
Protocol: as §1

[4] = test system: 39 types in total of human tumor cells; test: Human cultured cancer cell panel screening test, average over panel; format: cell-based; conditions: 50% cell growth inhibitory concentration, average over 39 human tumor cell types
Protocol: as §1

[5] = test system: SK-OV-3 ovarian cancer cell line; test: Human cultured cancer cell panel screening test, SK-OV-3; format: cell-based
Protocol: as §1

[6] = test system: DU-145 prostatic cancer cell line; test: Human cultured cancer cell panel screening test, DU-145; format: cell-based
Protocol: as §1

[7] = test system: OVCAR-8 ovarian cancer cell line; test: Human cultured cancer cell panel screening test, OVCAR-8; format: cell-based
Protocol: as §1

[8] = test system: OVCAR-4 ovarian cancer cell line; test: Human cultured cancer cell panel screening test, OVCAR-4; format: cell-based
Protocol: as §1

[9] = test system: human acute myeloid leukemia cell strain HL-60; test: Cytotoxic activity, MTT test on HL-60 cells; format: cell-based; conditions: 72 hr incubation; for IC50: Homo sapiens
Protocol: Cytostatic activity of TD-1 to 10 was studied in terms of numerical values of cytotoxic activity using human acute myeloid leukemia cell strain HL-60. The test was specifically carried out according to the following procedure.
HL-60 cells precultured in an FBS-containing RPMI 1640 medium were suspended in an FBS-containing RPMI 1640 medium so that the number of HL-60 cells is 4×10^4 per mL. The suspension was dispensed in an amount of […] for each well in a 96-well microplate, followed by preincubation in 5% carbon dioxide gas at 37° C. for 24 hr. Subsequently, EtOH-H2O(1:1) as control, and a solution of each TD compound in EtOH-H2O(1:1) as a sample were added each in an amount of […] to each well. After incubation in 5% carbon dioxide gas at 37° C. for 72 hr, an MTT reagent was added in an amount of […] to each well, and incubation was further carried out for 4 hr. The medium was removed, and MTT formazan thus produced was then dissolved in […] of DMSO. Detection was carried out at a light absorption wavelength of 550 nm with a microplate reader, and the viable cell count based on the control was calculated. IC50 values were calculated from a dose-response curve.

P388 mouse leukemia = conditions: mice with P388 mouse leukemia intraperitoneally transplanted; Pal et al. 1976; cited from earlier work

C=C1C(=O)O[C@@H]2C=C(C)[C@@]3(OC)C[C@@H](OC)[C@@](C)(C[C@@H](OC(=O)C(C)C)[C@@H]12)O3 [TD-1, (1R,3R,6R,7R,8R,10R)-1,3-dimethoxy-3,10-epoxy-8-isobutyryloxygermacra-4,11(13)-dien-6,12-olide]
GI50 [1]: 2.9 µM | GI50 [2]: 3.3 µM | GI50 [3]: 3.3 µM | GI50 [4]: 6.8 µM | GI50 [5]: 4 µM | GI50 [6]: 4.2 µM | GI50 [7]: 3.6 µM | GI50 [8]: 5.6 µM | IC50 value [9]: (0.60) μg/mL

C=C1C(=O)OC2/C=C(/C)C(=O)/C=C/C(C)(O)CC(OC(=O)C(C)C)C12 [TD-2, (6S,7R,8R,10R)-10-hydroxy-3-oxo-8-isobutyryloxygermacra-1,4,11(13)-trien-6,12-olide]
IC50 [9]: 0.38 µg/mL (≈ 1.09 µM)

C=C1C(=O)O[C@@H]2C[C@H](C)[C@@]3(OC)C[C@H](O)[C@@](C)(C[C@@H](OC(=O)C(C)C)[C@@H]12)O3 [TD-3, (1S,3R,4S,6R,7S,8R,10R)-1-hydroxy-3-methoxy-3,10-epoxy-8-isobutyryloxygermacra-11(13)-en-6,12-olide]
IC50 value [9]: (4.97) μg/mL

C=C1C(=O)O[C@@H]2C=C(C)[C@@]3(O)C[C@@H](OC)[C@@](C)(C[C@@H](OC(=O)C(C)C)[C@@H]12)O3 [TD-4, (1R,3R,6R,7R,8R,10R)-3-hydroxy-1-methoxy-3,10-epoxy-8-isobutyryloxygermacra-4,11(13)-dien-6,12-olide]
IC50 value [9]: (0.05) μg/mL

C=C1C(=O)O[C@@H]2C=C(C)[C@@]3(OC)C[C@H](O)[C@@](C)(C[C@@H](OC(=O)C(C)C)[C@@H]12)O3 [TD-6, (1 S,3R,6R,7R, 8R,10R)-1-hydroxy-3-methoxy-3,10-epoxy-8-isobutyryloxygermacra-4,11(13)-dien-6,12-olide]
IC50 value [9]: (2.50) μg/mL

C=C1C(=O)O[C@@H]2C[C@H](C)[C@@]3(O)C[C@H](O)[C@@](C)(C[C@@H](OC(=O)C(C)C)[C@@H]12)O3 [TD-7, (1S,3R,4S,6R,7S,8R,10R)-1,3-dihydroxy-3,10-epoxy-8-isobutyryloxygermacra-11(13)-en-6,12-olide]
IC50 value [9]: (3.87) μg/mL

C=C1C(=O)OC2/C=C(/C)C(O)CC3OC3(C)CC(OC(=O)C(C)C)C12 [TD-8, (1R,3S,6S,7R,8R,10R)-3-hydroxy-1,10-epoxy-8-isobutyrylgermacra-4,11(13)-dien-6,12-olide]
IC50 [9]: 0.92 µg/mL (≈ 2.63 µM)

C=C1C(=O)O[C@@H]2C[C@H](C)[C@@]3(O)CC[C@@](C)(C[C@@H](OC(=O)C(C)C)[C@@H]12)O3 [TD-9, (3R,4S,6R,7S,8R,10S)-3-hydroxy-3,10-epoxy-8-isobutyryloxygermacra-11 (13)-en-6,12-olide]
IC50 value [9]: (2.50) μg/mL

C=C1C(=O)O[C@@H]2C[C@H](C)[C@@]3(OC)CC[C@@](C)(C[C@@H](OC(=O)C(C)C)[C@@H]12)O3 [TD-10, (3R,4S,6R,7S,8R,10S)-3-methoxy-3,10-epoxy-8-isobutyryloxygermacra-11(13)-en-6,12-olide]
IC50 value [9]: (0.78) μg/mL

C=C1C(=O)O[C@H]2/C=C(/C)[C@@]3(O)C=C[C@@](C)(C[C@@H](OC(=O)C(C)C)[C@@H]12)O3 [TD-11, (3R,6R,7R,8R,10R)-3-hydroxy-3,10-epoxy-8-isobutyryloxygermacra-1,4,11(13)-trien-6,12-olide]
effect of prolonging the life span of mice (P388 mouse leukemia): had the effect of prolonging the life span of mice
